Measured values from publication PMC5394417, “Investigating the molecular mechanism of positive and negative allosteric modulators in the calcium-sensing receptor dimer” (Scientific Reports, 2017).

Target: T1, HA-I841A CaSR mutant (Rattus norvegicus, UniProt P48442, I841A)
T1 construct: mGluR5 signal peptide (N); expressed in transfected cells; host or cells: HEK293T
T1 sequence (P48442 20-1079 I841A): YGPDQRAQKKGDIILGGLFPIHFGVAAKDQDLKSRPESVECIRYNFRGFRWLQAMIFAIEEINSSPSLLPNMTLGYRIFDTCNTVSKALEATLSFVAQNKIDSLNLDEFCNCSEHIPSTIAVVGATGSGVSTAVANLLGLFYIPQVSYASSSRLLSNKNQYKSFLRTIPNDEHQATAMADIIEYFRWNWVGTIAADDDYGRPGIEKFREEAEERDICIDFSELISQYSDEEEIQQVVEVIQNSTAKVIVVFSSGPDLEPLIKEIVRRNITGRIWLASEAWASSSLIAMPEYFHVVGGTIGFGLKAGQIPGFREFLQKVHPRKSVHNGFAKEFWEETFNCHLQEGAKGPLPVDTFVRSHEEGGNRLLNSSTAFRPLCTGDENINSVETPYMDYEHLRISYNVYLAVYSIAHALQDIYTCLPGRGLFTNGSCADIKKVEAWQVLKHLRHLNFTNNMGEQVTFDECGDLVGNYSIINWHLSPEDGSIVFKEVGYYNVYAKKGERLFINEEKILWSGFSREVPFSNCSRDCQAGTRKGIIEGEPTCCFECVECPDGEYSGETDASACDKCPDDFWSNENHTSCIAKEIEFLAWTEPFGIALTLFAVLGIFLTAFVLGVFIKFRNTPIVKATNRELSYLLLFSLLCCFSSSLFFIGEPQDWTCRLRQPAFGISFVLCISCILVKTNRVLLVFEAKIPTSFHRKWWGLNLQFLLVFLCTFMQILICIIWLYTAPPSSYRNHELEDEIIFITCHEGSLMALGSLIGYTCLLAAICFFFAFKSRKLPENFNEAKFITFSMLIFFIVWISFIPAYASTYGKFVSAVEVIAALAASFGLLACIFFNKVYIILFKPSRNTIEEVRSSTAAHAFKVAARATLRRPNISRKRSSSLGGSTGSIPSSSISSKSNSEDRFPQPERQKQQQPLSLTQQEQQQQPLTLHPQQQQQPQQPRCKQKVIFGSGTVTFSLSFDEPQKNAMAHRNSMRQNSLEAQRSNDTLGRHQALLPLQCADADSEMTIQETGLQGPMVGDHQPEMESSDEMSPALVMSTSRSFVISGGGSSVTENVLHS
Test: IP-One assay, HEK293T transiently transfected
Assay type: cell-based

EC50 (Ca^2+ alone): 2.59 mM | pEC50 ± S.E.M. (Ca^2+ alone): 2.59 ± 0.01 | Max ± S.E.M. (Ca^2+ alone, normalized to maximum response of WT CaSR): 81 ± 14% | EC50 (Ca^2+ with 1 μM NPS R-568): 3.68 mM | Max ± S.E.M. (Ca^2+ with 1 μM NPS R-568, normalized to maximum response with Ca^2+ alone for the construct): 99 ± 18% | EC50 (Ca^2+ with 5 μM NPS 2143): 5.29 mM | pEC50 ± S.E.M. (Ca^2+ with 5 μM NPS 2143): 2.28 ± 0.03 | Max ± S.E.M. (Ca^2+ with 5 μM NPS 2143, normalized to maximum response with Ca^2+ alone for the construct): 97 ± 7.6%
SMILES: [Ca+2] [Ca^2+]
